Laboratory results reported in ChEMBL document CHEMBL1124141, “(+/-)-9-Amino-1,2,3,4-tetrahydroacridin-1-ol. A potential Alzheimer's disease therapeutic of low toxicity” (J Med Chem, 1988).

How the values were obtained:
Acetylcholinesterase = target: T1, Acetylcholinesterase (Rattus norvegicus, UniProt P37136); experiment: In vitro inhibitory activity against acetylcholinesterase using rat striatal preparations
T1 sequence (P37136 whole entry): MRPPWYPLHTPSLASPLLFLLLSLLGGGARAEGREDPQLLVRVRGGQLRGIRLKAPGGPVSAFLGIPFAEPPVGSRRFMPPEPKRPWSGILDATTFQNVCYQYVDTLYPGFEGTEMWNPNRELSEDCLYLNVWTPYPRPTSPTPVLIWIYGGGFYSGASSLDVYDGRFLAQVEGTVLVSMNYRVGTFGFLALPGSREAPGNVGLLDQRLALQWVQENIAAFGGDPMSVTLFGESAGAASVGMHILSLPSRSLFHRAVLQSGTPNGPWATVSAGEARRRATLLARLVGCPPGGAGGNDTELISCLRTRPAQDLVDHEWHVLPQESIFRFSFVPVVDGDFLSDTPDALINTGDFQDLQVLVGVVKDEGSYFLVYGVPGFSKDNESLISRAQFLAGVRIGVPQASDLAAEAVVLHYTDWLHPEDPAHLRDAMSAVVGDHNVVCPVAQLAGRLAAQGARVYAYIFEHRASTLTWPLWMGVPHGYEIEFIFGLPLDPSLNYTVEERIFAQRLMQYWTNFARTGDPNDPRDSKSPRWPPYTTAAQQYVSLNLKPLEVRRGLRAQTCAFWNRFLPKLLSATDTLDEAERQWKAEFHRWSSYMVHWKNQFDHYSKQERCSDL

[1] = Acute toxicity in mice was determined after oral administration; type: organism-based; conditions: mouse, in vivo
Mus musculus = species: Mus musculus; conditions: dose 0.63 mg/kg; route subcutaneous
Description: Reversal of scopolamine-induced memory impairment in mice, after subcutaneous administration of 0.63 mg/kg

Nc1c2c(nc3ccccc13)CCCC2O.O=C(O)/C=C\C(=O)O (stereo not drawn) [VELNACRINE MALEATE]
IC50 (Acetylcholinesterase): 4.8 µM | LD50 [1]: 136 mg/kg | Reversal (Mus musculus): 33%
